The values below come from publication PMC10766536 (The Journal of Antibiotics, 2023).

The IC50 is the midpoint of a concentration-inhibition curve.

The test system of data set [1] is Caco-2: endogenous transporters.
Data set [2] has as its system S. aureus MRSA strain N315. Description: S. aureus IV advanced disseminated infection mouse model, kidney burden. The data set is classed as in vivo, Balb/c mice. Here is the method:
(§1) S. aureus MSRA strain NRS384 or N315 (BEI Resources), where indicated, was grown overnight in TSB and sub-cultured to mid-logarithmic phase. […] From 1 to 3 days post-infection, indicated mice were injected subcutaneously with 110 mg/kg vancomycin twice daily where indicated. […] Mice were monitored for weight loss and body conditioning score throughout the infection. At 4 days post-infection, mice were euthanized, and the S. aureus kidney burden was quantified by tissue homogenization followed by enumeration of cfu through serial dilution in PBS and plating onto TSA plates. Data points represent the kidney burden from individual mice tested. Statistical analysis was conducted with GraphPad Prism 9, Version 9.4.1.

The test system of data set [3] is S. aureus MRSA strain NRS384. The data set is described as above. The data set is classed as in vivo, Balb/c mice. The following applies: 0.01–0.25 mg/kg sc single dose in combination with vancomycin, NRS384. Here is the method:
as §1

Data set [4] in a line: Toxicokinetics in 2-week IV rat toxicity study. The data set is classed as in vivo. On the procedure: A subset from each dose group was maintained for 14 days after the last dose to evaluate delayed toxicity and/or recovery. All animals were observed twice daily for mortality and signs of pain or distress. Detailed clinical observations, body weight measurements and food consumption were conducted weekly; post dose observations (30 min post dose) were conducted daily or as required. Clinical pathology evaluations (hematology, coagulation parameters, and serum chemistry) were performed using samples collected on the day of scheduled sacrifice (main and recovery). At the end of the 14-day dosing period, and at the end of the 14-day recovery period, necropsies were performed on all animals, selected organs were weighed, and tissues were examined macroscopically and microscopically. Toxicokinetic parameters were evaluated on Day 1 and 14.

Data set [5] in a line: Compound stability in CYP induction assay.
Another data set concerns the target CYP 1A2 (Homo sapiens, UniProt P05177). The following applies: read-out: CYP inhibition IC50; CYP 1A2, substrate Phenacetin; ND = Not Detected.

Chain of CYP 1A2 (P05177 whole entry): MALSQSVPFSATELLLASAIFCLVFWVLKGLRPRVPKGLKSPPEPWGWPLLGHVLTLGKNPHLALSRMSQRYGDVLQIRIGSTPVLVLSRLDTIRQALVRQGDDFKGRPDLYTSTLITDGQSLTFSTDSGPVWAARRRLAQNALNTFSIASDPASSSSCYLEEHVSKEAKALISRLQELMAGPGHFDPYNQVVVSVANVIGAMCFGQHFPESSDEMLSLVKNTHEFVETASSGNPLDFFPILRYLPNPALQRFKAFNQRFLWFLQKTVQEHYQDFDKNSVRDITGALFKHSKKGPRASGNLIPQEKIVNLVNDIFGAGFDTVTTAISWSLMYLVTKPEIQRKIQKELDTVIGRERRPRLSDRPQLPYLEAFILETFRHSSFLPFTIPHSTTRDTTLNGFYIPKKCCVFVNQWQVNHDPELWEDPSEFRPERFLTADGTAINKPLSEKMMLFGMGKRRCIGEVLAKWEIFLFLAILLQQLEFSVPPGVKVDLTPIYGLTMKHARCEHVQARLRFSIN

On to `COC1C=COC2(C)Oc3c(C)c(O)c4c(=O)c(c5oc6cc(OCCN(C)C)ccc6nc-5c4c3C2=O)NC(=O)C(C)=CC=CC(C)C(O)C(C)C(O)C(C)C(OC(C)=O)C1C` (centres unmarked) [Compound 4], for which the “Fold Induction (Enzyme Activity)” value with CYP 2B6 came out at 0.0131. For the same compound, in data set [1], the “Mean A-B % Recovery” value is 52.70%, the “Mean B-A % Recovery” value was found to be 66.30%, the “Mean Papp A-B” value is listed as 2.59 10^−6 cm/s and the “Mean Papp B-A” value is 10.3 10^−6 cm/s. Further, the “bacterial load (kidney)” value in data set [2] (0.01 mg/kg in combination with vancomycin) is “below the limit of detection”. For the same compound, the “S. aureus kidney burden” value in data set [2] (0.01–0.75 mg/kg in combination with vancomycin) is reported as “to or near the limit of detection”. For the same compound, in data set [3], the “S. aureus kidney burden” value is “further reduced kidney burden”. In data set [4] (rat IV QD), the “accumulation following 14 daily doses” value is listed as “No apparent accumulation”. Also, in data set [4] (rat IV QD 1 mg/kg/day, males vs females), the “sex difference in exposure” value is listed as “No sex difference”. For the same compound, in data set [4] (rat IV QD 0.1-10 mg/kg/day), the “dose proportionality of Cmax and AUCtau” value was “approximately dose-proportional”. The “AUC or Cmax when coadministered with vancomycin” value in data set [4] (rat IV, 1 + 110 mg/kg/day, compound 5: except Day 1, slightly greater Cmax and AUC) is reported as “not impacted”. Further, the “Average % Stability” value in data set [5] is reported as 75.8%. Further, the half-inhibitory concentration (IC50) at CYP 1A2 stood at 10.9 µM.
